Counter-ions that a name gives are not always drawn.

The values that follow come from patent publication US9783536B2, “Nitrogen-containing heterocyclic compound or salt thereof” (FUJIFILM Corporation, priority 2013, dated 2017).

Type in all cases: biochemical
For test [1], the target named is T1, GST fusion human ERK2 protein (Homo sapiens, UniProt P28482).
T1 construct: purchased Carna Biosciences, Inc; host or cells: E. coli expression system
Kind of test: ERK2 enzyme assay (1). The following applies: read-out: ERK2 enzyme inhibitory activity (1). On the procedure:
In an ERK2 enzyme assay, GLUTATHIONE S-TRANSFERASE (GST) FUSION HUMAN ERK2 PROTEIN (manufactured by Carna Biosciences, Inc.), which was produced by using an E. coli expression system, was used.
12 μL of a reaction liquid (2.5 nmol/L ERK2, 100 mmol/L Hepes, 10 mmol/L MgCl2, 1.5 mmol/L DTT, 0.003% Brij35, pH 7.5) including ERK2 protein and a test compound having a predetermined concentration was allowed to stand at room temperature for 15 minutes. Then, 3 μL of a mixture liquid of FL-PEPTIDE8 (5-FAM-IPTSPITTTYFFFKKK-COOH) (manufactured by Caliper Life Sciences), which is substrate peptide, and ATP (manufactured by Sigma-Aldrich Co. LLC.) was added thereto such that the final concentrations thereof became 4.25 μmol/L and 43.1 μmol/L, respectively, and an enzyme reaction was performed by allowing to stand at 25° C. for 120 minutes.
After the reaction, the enzyme reaction was stopped by adding 30 μL of a reaction stopper liquid (100 mmol/L HEPES, 11.2 mmol/L EDTA, 5.6% Brij35, pH 7.5) including a 0.5% COATING REAGENT 8 (trade name, manufactured by Perkin Elmer Inc.) thereto. Then, phosphorylated peptide and non-phosphorylated peptide were separated using LABCHIP EZ READER (trade name, manufactured by Caliper Life Sciences), and the porportion of the phosphorylated peptide was quantified.
The inhibitory activities of the compounds were evaluated using IC50 (50% inhibitory concentration). The IC50 was calculated using XLFIT (trade name, manufactured by ID Business Solutions).

The target in test [2] is T2, human PI3Kα protein (Homo sapiens, UniProt P42336).
T2 construct: purchased Carna Biosciences, Inc; host or cells: baculovirus expression system
Description: PI3Kα enzyme assay (ADP-Glo). As to conditions: read-out: PI3Kα enzyme inhibitory activity. Put shortly: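 Biotinylated human PI3Kα (baculovirus-expressed, 4.5 nmol/L) pre-incubated 15 min with compound in Tris-HCl pH 7.5, MgCl2, BSA; reaction 60 min at 25° C with 50 μmol/L PIP2 and 100 μmol/L ATP final. ADP quantified by ADP-Glo luminescence; IC50 calculated.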
(In general: In ADP-Glo the light output rises with the ADP produced.)

For test [3], the target named is T1, GST fusion human ERK2 protein. Description: ERK2 enzyme assay (2). As to conditions: read-out: ERK2 enzyme inhibitory activity (2). The method in brief:
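IC50 values come from mobility-shift measurement of phosphorylated versus unphosphorylated 5-FAM peptide substrate after EDTA quench. Beforehand, compound and 1.25 nmol/L E. coli-expressed GST–human ERK2 stood 15 min at room temperature (pH 7.5), then 1 mmol/L ATP and 4.25 μmol/L substrate (final) were added for 120 min at 25 °C.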

Setting [4] is: 2.5 nmol/L ERK2, ATP 43.1 μmol/L.

T2 sequence (P42336 whole entry): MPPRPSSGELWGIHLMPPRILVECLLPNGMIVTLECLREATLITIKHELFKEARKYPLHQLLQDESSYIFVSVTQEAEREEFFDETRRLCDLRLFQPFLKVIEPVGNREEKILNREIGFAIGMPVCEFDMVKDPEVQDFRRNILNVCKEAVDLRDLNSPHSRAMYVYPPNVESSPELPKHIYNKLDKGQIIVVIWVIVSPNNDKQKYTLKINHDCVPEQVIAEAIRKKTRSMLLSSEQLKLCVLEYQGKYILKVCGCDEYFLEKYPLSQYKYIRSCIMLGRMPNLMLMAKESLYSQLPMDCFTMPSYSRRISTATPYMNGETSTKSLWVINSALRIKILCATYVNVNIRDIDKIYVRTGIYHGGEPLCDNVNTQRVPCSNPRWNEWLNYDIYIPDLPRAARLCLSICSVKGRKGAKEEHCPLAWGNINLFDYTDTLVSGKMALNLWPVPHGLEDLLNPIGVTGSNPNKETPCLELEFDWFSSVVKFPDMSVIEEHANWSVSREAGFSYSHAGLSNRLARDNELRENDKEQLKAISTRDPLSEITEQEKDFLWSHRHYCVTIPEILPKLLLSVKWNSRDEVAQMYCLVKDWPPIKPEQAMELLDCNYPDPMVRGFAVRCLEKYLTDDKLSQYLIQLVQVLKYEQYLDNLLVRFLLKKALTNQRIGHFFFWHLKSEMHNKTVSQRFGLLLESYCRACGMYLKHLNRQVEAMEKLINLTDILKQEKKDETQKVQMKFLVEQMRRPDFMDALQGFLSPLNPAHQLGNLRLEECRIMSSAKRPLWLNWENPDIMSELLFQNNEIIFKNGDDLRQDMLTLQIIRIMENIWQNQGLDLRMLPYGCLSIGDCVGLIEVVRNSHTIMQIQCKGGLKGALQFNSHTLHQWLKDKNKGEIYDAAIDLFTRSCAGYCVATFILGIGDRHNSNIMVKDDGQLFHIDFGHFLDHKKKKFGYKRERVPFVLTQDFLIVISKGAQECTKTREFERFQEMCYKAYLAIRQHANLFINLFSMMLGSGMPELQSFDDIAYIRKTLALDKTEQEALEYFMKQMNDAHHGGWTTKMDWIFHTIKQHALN
T2 sequence (P27986 whole entry partner): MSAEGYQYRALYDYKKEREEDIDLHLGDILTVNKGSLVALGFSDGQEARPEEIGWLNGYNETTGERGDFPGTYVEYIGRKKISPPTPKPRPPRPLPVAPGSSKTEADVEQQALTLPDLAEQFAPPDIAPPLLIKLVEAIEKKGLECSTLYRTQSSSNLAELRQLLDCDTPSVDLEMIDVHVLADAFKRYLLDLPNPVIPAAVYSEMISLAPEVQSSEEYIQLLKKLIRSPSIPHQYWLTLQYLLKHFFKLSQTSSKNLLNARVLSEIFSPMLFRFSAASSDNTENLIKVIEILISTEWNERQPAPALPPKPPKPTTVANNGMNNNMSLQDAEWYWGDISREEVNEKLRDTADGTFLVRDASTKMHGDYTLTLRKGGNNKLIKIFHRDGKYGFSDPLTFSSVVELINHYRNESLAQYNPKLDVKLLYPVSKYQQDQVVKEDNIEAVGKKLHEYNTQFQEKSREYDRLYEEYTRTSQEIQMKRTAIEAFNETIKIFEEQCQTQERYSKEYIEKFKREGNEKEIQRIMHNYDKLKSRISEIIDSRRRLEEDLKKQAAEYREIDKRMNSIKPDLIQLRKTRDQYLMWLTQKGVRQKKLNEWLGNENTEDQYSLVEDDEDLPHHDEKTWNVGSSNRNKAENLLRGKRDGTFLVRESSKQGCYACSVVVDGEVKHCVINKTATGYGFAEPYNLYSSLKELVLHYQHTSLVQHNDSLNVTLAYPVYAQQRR
T1 sequence (P28482 whole entry, the tested form may be a part): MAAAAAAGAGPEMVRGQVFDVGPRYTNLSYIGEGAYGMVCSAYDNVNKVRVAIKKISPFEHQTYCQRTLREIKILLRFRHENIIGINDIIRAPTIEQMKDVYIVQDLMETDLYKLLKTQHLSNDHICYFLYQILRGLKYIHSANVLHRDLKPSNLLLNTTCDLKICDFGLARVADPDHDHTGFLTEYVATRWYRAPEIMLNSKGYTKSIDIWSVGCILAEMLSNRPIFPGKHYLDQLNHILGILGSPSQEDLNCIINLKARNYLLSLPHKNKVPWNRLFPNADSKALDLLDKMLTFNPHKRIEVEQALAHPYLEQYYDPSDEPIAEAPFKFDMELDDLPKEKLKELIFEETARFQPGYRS

Regarding `Cn1cc(-c2cnc3ccc(Nc4nnc(-c5ccccc5)s4)nc3c2)cn1` [Example 0028], the IC50 in test [1] (setting [4]) was less than 1000 nM. The same measure, in the same setting: the result for `Cc1nnc(Nc2ccc3ncc(-c4cnn(C)c4)cc3n2)o1` [Example 0031, 5-methyl-N-(7-(1-methyl-1H-pyrazol-4-yl)-1,5-naphthyridin-2-yl)-1,3,4-oxadiazole-2-amine hydrochloride] reads 1000 to 10000 nM; that for `Brc1cnc2ccc(Nc3nnc(C4CCCC4)s3)nc2c1` [Example 0039, N-(7-bromo-1,5-naphthyridin-2-yl)-5-cyclopentyl-1,3,4-thiadiazole-2-amine], less than 1000 nM; that for `C#Cc1cnc2ccc(Nc3nnc(C4CCCC4)s3)nc2c1` [Example 0042, 5-cyclopentyl-N-(7-ethynyl-1,5-naphthyridin-2-yl)-1,3,4-thiadiazole-2-amine hydrochloride], 10000 to 50000 nM. Same read-out and setting: the result for `c1cncc(Oc2cnc3ccc(Nc4nnc(C5CCCC5)s4)nc3c2)c1` [Example 0044, 5-cyclopentyl-N-(7-((pyridin-3-yl)oxy)-1,5-naphthyridin-2-yl)-1,3,4-thiadiazole-2-amine hydrochloride] reads 1000 to 10000 nM; that for `FC(F)(F)CN1CCN(c2cnc3ccc(Nc4nnc(C5CCCC5)s4)nc3c2)CC1` [Example 0049], 1000 to 10000 nM. Consider `c1cn(-c2cc(Nc3cnc4ccc(Nc5nnc(C6CCCC6)s5)nc4c3)ccn2)nn1` [Example 0080], for which the IC50 in test [1] (setting [4]) was less than 1000 nM. The same measure, in the same setting: the result for `COc1ccc(Nc2ccc3ncc(-c4cnn(C)c4)cc3n2)nn1` [Example 0149] reads 1000 to 10000 nM; that for `Cn1cc(-c2cnc3ccc(Nc4nnc(C(F)(F)F)s4)nc3c2)cn1` [Example 0164], less than 1000 nM.

Take `Cn1cc(-c2cnc3ccc(Nc4nnc(C(N)=O)s4)nc3c2)cn1` [Example 0168, 5-((7-(1-Methyl-1H-pyrazol-4-yl)-1,5-naphthyridin-2-yl)amino)-1,3,4-thiadiazole-2-carboxamide]: the IC50 in test [1] (setting [4]) is less than 1000 nM. With `CSc1nnc(Nc2ccc3ncc(-c4cnn(C)c4)cc3n2)s1` [Example 0174, N-(7-(1-methyl-1H-pyrazol-4-yl)-1,5-naphthyridin-2-yl)-5-(methylthio)-1,3,4-thiadiazole-2-amine], the IC50 in test [1] (setting [4]) was less than 1000 nM. The same measure, in the same setting: the result for `Cn1cc(-c2cnc3ccc(Nc4nnc(C5CCC5)s4)nc3c2)cn1` [Example 0198, 5-Cyclobutyl-N-(7-(1-methyl-1H-pyrazol-4-yl)-1,5-naphthyridin-2-yl)-1,3,4-thiadiazole-2-amine] reads less than 1000 nM. With `COc1ccc(-c2cnc3ccc(Nc4nnc(C5CCCC5)s4)nc3c2)cc1OC` [Example 0203], the IC50 in test [1] (ERK2 enzyme assay (1)) is less than 1000 nM. For the compound `COc1cc(-c2cnc3ccc(Nc4nnc(C5CCCC5)s4)nc3c2)cc(OC)c1OC` [Example 0204], the IC50 in test [1] (ERK2 enzyme assay (1)) is less than 1000 nM. The same measure, in the same setting: the result for `COc1ccccc1-c1cnc2ccc(Nc3nnc(C4CCCC4)s3)nc2c1` [Example 0211] reads less than 1000 nM.

For `COc1cccc(-c2cnc3ccc(Nc4nnc(C5CCCC5)s4)nc3c2)c1` [Example 0212], in test [1] (ERK2 enzyme assay (1)), the IC50 is less than 1000 nM. The same measure, in the same setting: the result for `COc1ccc(-c2cnc3ccc(Nc4nnc(C5CCCC5)s4)nc3c2)cc1` [Example 0213] reads less than 1000 nM; that for `Cc1noc(C)c1-c1cnc2ccc(Nc3nnc(C4CCCC4)s3)nc2c1` [Example 0216], less than 1000 nM. Regarding `CC(C)c1cnnc(Nc2ccc3ncc(-c4cn(C)nc4N4CCCCC4)cc3n2)c1` [Example 0936], the IC50 in test [2] and in test [3] was less than 1000 nM throughout. Take `CC(C)c1cnnc(Nc2ccc3ncc(-c4cn(C)nc4N4CCCC4)cc3n2)c1` [Example 0937]: the IC50 in test [2] and in test [3] was less than 1000 nM throughout. `CC(C)c1cnnc(Nc2ccc3ncc(-c4cn(C)nc4N(C)C)cc3n2)c1` [Example 0938, 7-(3-(Dimethylamino)-1-methyl-1H-pyrazol-4-yl)-N-(5-isopropylpyridazin-3-yl)-1,5-naphthyridine-2-amine]: the IC50 in test [2] and in test [3] was less than 1000 nM each time. As for `CC(C)c1cnnc(Nc2ccc3ncc(-c4cn(C)nc4NC4CCC4)cc3n2)c1` [Example 0939], the IC50 in test [2] and in test [3] was less than 1000 nM in each case. As for `CC(C)c1cnnc(Nc2ccc3ncc(-c4cn(C)nc4NC4CCOC4)cc3n2)c1` (stereo not shown) [Example 0940], the IC50 in test [2] and in test [3] was less than 1000 nM throughout. For `CC(C)c1cnnc(Nc2ccc3ncc(-c4cn(C)nc4N4CC5(CCO5)C4)cc3n2)c1` [Example 0941], the IC50 in test [2] and in test [3] was less than 1000 nM throughout. Consider `CC(C)c1cnnc(Nc2ccc3ncc(-c4cn(C)nc4CN4CCOCC4)cc3n2)c1` [Example 0942, N-(5-isopropylpyridazin-3-yl)-7-(1-methyl-3-(morpholinomethyl)-1H-pyrazol-4-yl)-1,5-naphthyridine-2-amine], for which the IC50 in test [2] and in test [3] was less than 1000 nM each time. Regarding `CC(C)c1cnnc(Nc2ccc3ncc(-c4cn(C)nc4N(C)C4COC4)cc3n2)c1` [Example 0943], the IC50 in test [2] and in test [3] was less than 1000 nM in each case. Regarding `CCN(CC)c1nn(C)cc1-c1cnc2ccc(Nc3cc(C(C)C)cnn3)nc2c1` [Example 0944], the IC50 in test [2] and in test [3] was less than 1000 nM in each case. As to `COCCN(C)c1nn(C)cc1-c1cnc2ccc(Nc3cc(C(C)C)cnn3)nc2c1` [Example 0945], the IC50 in test [2] and in test [3] was less than 1000 nM each time. As to `COCCNc1nn(C)cc1-c1cnc2ccc(Nc3cc(C(C)C)cnn3)nc2c1` [Example 0946], the IC50 in test [2] and in test [3] was less than 1000 nM in each case.

As for `COCCN(CCOC)c1nn(C)cc1-c1cnc2ccc(Nc3cc(C(C)C)cnn3)nc2c1` [Example 0947], the IC50 in test [2] and in test [3] was 1000 to 10000 nM throughout.

`CC(C)c1cnnc(Nc2ccc3ncc(-c4cn(C)nc4NC4CCCC4)cc3n2)c1` [Example 0948]: the IC50 in test [2] and in test [3] was less than 1000 nM in each case.

For `CC(C)c1cnnc(Nc2ccc3ncc(-c4cn(C)nc4NC4CCCCCC4)cc3n2)c1` [Example 0949], the IC50 in test [2] and in test [3] was 1000 to 10000 nM in each case.

`Cc1nn(C)cc1-c1cnc2ccc(Nc3cn(C(C)C)cn3)nc2c1` [Example 0950, 7-(1,3-dimethyl-1H-pyrazol-4-yl)-N-(1-isopropyl-1H-imidazol-4-yl)-1,5-naphthyridine-2-amine]: the IC50 in test [2] was less than 1000 nM; in test [3] it was 1000 to 10000 nM.

On to `CCOc1c(-c2cnn(C)c2)cnc2ccc(Nc3cc(C(C)C)cnn3)nc12` [Example 0951, 8-Ethoxy-N-(5-isopropylpyridazin-3-yl)-7-(1-methyl-1H-pyrazol-4-yl)-1,5-naphthyridine-2-amine], for which the IC50 in test [2] and in test [3] was less than 1000 nM each time.

For the compound `CC(C)c1cnnc(Nc2ccc3ncc(-c4cnn(C)c4)c(Cl)c3n2)c1` [Example 0952, 8-Chloro-N-(5-isopropylpyridazin-3-yl)-7-(1-methyl-1H-pyrazol-4-yl)-1,5-naphthyridine-2-amine], the IC50 in test [2] and in test [3] was less than 1000 nM throughout. For the compound `CC(C)c1cnnc(Nc2ccc3ncc(-c4cnn(C)c4)c(-c4ccncc4)c3n2)c1` [Example 0953, N-(5-isopropylpyridazin-3-yl)-7-(1-methyl-1H-pyrazol-4-yl)-8-(pyridin-4-yl)-1,5-naphthyridine-2-amine], the IC50 in test [2] and in test [3] was less than 1000 nM each time. In the case of `CC(C)c1cnnc(Nc2ccc3ncc(-c4cnn(C)c4)c(-c4cccnc4)c3n2)c1` [Example 0954, N-(5-isopropylpyridazin-3-yl)-7-(1-methyl-1H-pyrazol-4-yl)-8-(pyridin-3-yl)-1,5-naphthyridine-2-amine], the IC50 in test [2] and in test [3] was less than 1000 nM each time. On to `CC(C)c1cnnc(Nc2ccc3ncc(-c4cnn(C)c4)c(N4CCOCC4)c3n2)c1` [Example 0955, N-(5-isopropylpyridazin-3-yl)-7-(1-methyl-1H-pyrazol-4-yl)-8-morpholino-1,5-naphthyridine-2-amine], for which the IC50 in test [2] and in test [3] was less than 1000 nM throughout.
